In US20180214442A1, “METHODS FOR ATTENUATING OR PREVENTING MU(μ)-OPIOID RECEPTOR MEDIATED TOLERANCE AND OPIOID-INDUCED […]” (The Board of Trustees of the Leland Stanford Junior …, priority 2017, published 2018):

How the values were obtained:
[1] = tested on: light-evoked excitatory postsynaptic currents (EPSCs) in lamina I-II outer neurons; assay: Spinal cord slice whole-cell recording of light-evoked EPSCs from ChR2-expressing TRPV1 nociceptors; assay type: cell-based, mouse
Source text: FIG. 4. Opioid-induced spinal long-term potentiation (LTP) is initiated by presynaptic MOR in nociceptors. (a,b) MOR cKO mice crossed with a mouse line expressing Channel-rhodopsin2 (ChR2-eYFP) in a Cre-dependent manner produces expression of ChR2-eYFP in Trpv1^Cre+DRG nociceptor cell bodies and central terminals in the spinal cord dorsal horn. Scale bars=50 m, throughout. (c,d) Blue light-evoked (473 nm, 1.0 mW/cm^2, 0.2 ms, 0.05 Hz) excitatory postsynaptic currents (EPSCs) recorded in laminae I and II outer spinal neurons in slices from MOR cKO and littermate controls. Numbered inset traces correspond to individual EPSCs before, during, and after wash-out of bath applied DAMGO (500 nM; 5 min duration). Scale bar=100 pA, 10 ms. (c) DAMGO-induced depression of EPSC amplitude and rebound LTP after washout (Control+LTP; n=8/15 neurons) in control slices. […] Error bars are mean±SEM.
Adult mice (6-8 weeks old) were anesthetized with isoflurane, decapitated, and the vertebral column was rapidly removed and placed in oxygenated ice-cold dissection solution (in mM: 95 NaCl, 2.5 KCl, 1.25 NaH2PO4, 26 NaHCO3, 50 sucrose, 25 glucose, 6 MgCl2, 1.5 CaCl2, and 1 kynurenic acid, pH 7.4, 320 mOsm). The lumbar spinal cord was isolated, embedded in a 3% agarose block, and transverse slices (400 Lm thick) were made using a vibrating microtome (Leica V T 1200S). Slices were incubated in oxygenated recovery solution (in mM: 125 NaCl, 2.5 KCl, 1.25 NaH2PO4, 26 NaHCO3, 25 glucose, 6 MgCl2, and 1.5 CaCl2, pH 7.4, 320 mOsm) at 35° C. for 1 hour before recording. Patch-clamp recording in whole-cell configuration was performed at 32° C. on lamina I or lamina II outer zone neurons visualized with an Olympus microscope (BX51WI age-MTI). Slices were perfused at ˜2 ml/min with recording solution (in mM: 125 NaCl, 2.5 KCl, 1.25 NaH2PO4, 26 NaHCO3, 25 glucose, 1 MgCl2, 2 CaCl2, pH 7.4, 320 mOsm). Recordings were performed in voltage-clamp mode at a holding potential of −70 mV. Thick-walled borosilicate pipettes, having a resistance of 3-6 MOhm, were filled with internal solution (in mM: 120 potassium gluconate, 20 KCl, 2 MgCl2, 5 MgATP, 0.5 NaGTP, 20 HEPES, 0.5 EGTA, PH 7.25 with KOH, ˜300 mOsm). All data were acquired using a Multiclamp 700B amplifier and pClamp10 software (Molecular Devices). Sampling rate was 10 kHz and data were filtered at 2 kHz. Analysis of eEPSC peak amplitudes was done with Clampfit software (pClamp10, Molecular Devices). Graphs and statistical analysis were generated with Igor Pro (Wave Metrics).
To isolate the TRPV1 nociceptor mediated EPSCs, we crossed the TRPV1-Cre mice with Ai32 mice (Rosa-CAG-LSL-ChR2(H134R)-EYFP-WPRE) (Bardoni et al., 2014) to limit the channelrhodopsin 2 expression specifically to TRPV1 primary afferents. […]

wild-type C57Bl/6J mice = assay: Morphine and MNB combination in wild-type mice: nociceptive reflexes, affective-motivational behaviors, tolerance and OIH; assay type: in vivo, mouse
Experimental: (a) Temporal raster plot of nociception-induced sensory-reflexive and affective-motivational behaviors in an inescapable noxious environment (enclosed 52.5° C. hotplate). […] MNB doses 0.0-1.0 mg/kg, n=10; MNB 10 mg/kg, n=7 for reflexive tests and n=5 for affective-motivational tests. Best-fit lines were generated following non-linear regression analysis based on the % MPE for each mouse. One-way ANOVA+Bonferroni (left panels of b,d,f-k). ★ P<0.05. Error bars are mean±SEM. Overlaid points are individual animal scores. PID=post-injury day.
(b) Visual depiction of reflexive paw flinching behavior. (c) Latencies to the first paw flinch. (d) Number of paw flinches (see FIG. 17). (e) Visual depiction of hindpaw guarding behavior. (f) Latency to the first onset of hindpaw guarding. (g) Total duration of time spent engaged in hindpaw guarding. (h) Visual depiction of hindpaw attending. (i) Latency to the first onset of hindpaw attending. (j) Total duration of time spent engaging in hindpaw attending. (k) Visual depiction of escape jumping behavior. (1) Latency to the first jump. […] (m) Number of escape jumps. […] Error bars are±SEM.
Repeated Measures 2-way ANOVA+Bonferonni. ★ P<0.05. Error bars are mean±SEM.
(§1) To evaluate mechanical reflexive hypersensitivity (Weibel et al., 2013), we used a logarithmically increasing set of 8 von Frey filaments (Stoelting), ranging in gram force from 0.007 to 6.0 g. These were applied perpendicular to the plantar hindpaw with sufficient force to cause a slight bending of the filament. A positive response was characterized as a rapid withdrawal of the paw away from the stimulus filament within 4 s. Using the up-down statistical method (Solway et al., 2011), the 50% withdrawal mechanical threshold scores were calculated for each mouse and then averaged across the experimental groups.
(§2) To evaluate affective-motivational responses to an acute, focal thermal stimulus (Madisen et al., 2012), we applied either a single, unilateral 50 μl drop of 55° C. water or acetone (evaporative cooling) to the left hindpaw, and the duration of attending behavior was collected for up to 30 seconds after the stimulation. Only one stimulation per thermal drop was applied on a given testing session, in order to prevent behavioral sensitization that can result from multiple noxious stimulations and then averaging those responses.
To evaluate affective-motivational responses to a sustained, inescapable noxious thermal stimulus, mice were placed on a 52.5° C. hot plate for 45 seconds. A high-speed camera (on the side, level with the hot plate floor) was used to capture the movement, speed, velocity, and detailed reflexive and affective-motivational behaviors of the mice, as described above.
As opposed to the standard hot-plate test, all behaviors such as reflexive paw flinching (rapid flicking of the limb), paw attending (directed licking of the limb), paw guarding (intentional lift protection of the limb), and escape jumping for the duration of the trial were scored. This allowed the analysis of the high-speed videos, blinded to plate temperature or treatment, for the total time spent engaging in affective-motivational behaviors and the number of nociceptive reflexives, as opposed to the traditional metric of merely determining the latency to the first reflexive response.

laxation responses = settings: subcutaneous MNB 5, 12.5 or 20 mg; clinical; cited from earlier work
[2] = tested on: wild-type control and global MOR KO mice; assay: Chronic morphine analgesic tolerance and OIH in wild-type control and global MOR KO mice (thermal tail immersion); assay type: in vivo, mouse
Experimental: These treatments were given for 6 days (Days 2-7). […] (b) Untransformed, raw sensory threshold scores for same data presented in FIG. 1, panels a and b. n=6 for all groups. ★ P<0.05. Error bars are±SEM.
(§3) The tail-immersion test was used to evaluate thermal reflexive hypersensitivity (Woolf, 1984) with the temperature of the water bath being set to 48-52.5° C. The mouse was gently restrained and 2 cm of the tip of the tail was submerged in the water bath, and the latency (seconds) to reflexively withdraw the tail from the water was recorded as a positive nociceptive reflex response. A maximal cut-off of 45-60 s was set to prevent tissue damage.

[3] = tested on: mice with chronic constriction injury (CCI) of the sciatic nerve; settings: CCI + morphine alone 10 mg/kg
Source text: (§4) Error bars are mean±SEM. Overlaid points are individual animal scores. PID=post-injury day.
as §1, §2

[4] = tested on: mice with tibia fracture and bone pinning; settings: morphine alone 10 mg/kg
Source text: as §4, §4, §1, §2

[5] = tested on: MOR cKO mice and littermate controls; assay: 10 day chronic morphine schedule: antinociceptive tolerance and OIH in MOR cKO mice and littermate controls; assay type: in vivo, mouse; settings: 10 mg/kg subcutaneous once daily for 10 days
Experimental: Nociceptive behavior (pre-morphine BL timepoints only): von Frey: F1, 30=9.863, P=0.004; tail immersion: F1, 30=0.7311; hotplate: F1, 30=[…]. Antinociception (post-morphine+30 min timepoints only): von Frey: F1, 30=4.812, P=0.0367; tail immersion: F1, 30=19.74, P<0.0001; hotplate: F1, 30=17.23, P=0.0004. […] Control, n=19; MOR cKO, n=13. BL=baseline. […] Repeated Measures Two-way ANOVA+Bonferroni (a,d,g and left panels of b,c,e,f,h,i). ★ P<0.05. Error bars are mean±SEM. Overlaid points are individual animal scores. BL=baseline.
as §3
The hotplate test was used to evaluate thermal-induced affective-motivational responses (Woolf, 1984) with the plate temperature being set to 50-52.5° C.). Mice were place on the plate and the latency (seconds) to the first appearance of an attending response (lick and/or bite at one or both hindpaws) was recorded as a positive affective-motivational response. A maximal cut-off of 45 s was set to prevent tissue damage.
Next the development of morphine antinociceptive tolerance and OIH in MOR cKO mice was evaluated. […] We measured thermal and mechanical nociceptive thresholds, and affective-motivational responses to noxious thermal stimuli prior to, and 30 min after, each daily injection, to evaluate OIH and tolerance, respectively (FIG. 3, panels a, d, g).

[6] = tested on: MOR cKO mice and littermate controls; assay: Acute morphine antinociception in MOR cKO mice and littermate controls (von Frey, tail immersion, hotplate); assay type: in vivo, mouse
Source text: as §1

[7] = subcutaneous morphine 10 mg/kg, acute

In the case of C[C@@H](NC(=O)[C@@H](N)Cc1ccc(O)cc1)C(=O)NCC(=O)N(C)[C@@H](Cc1ccccc1)C(=O)NCCO [DAMGO, [D-Ala^2, N-MePhe^4, Gly-ol^5]-enkephalin], the “EPSC amplitude during DAMGO” value ([1]; MOR cKO slices, 9 out of 9 neurons, 500 nM) is reported as 98±8.12 % of control, the “EPSC amplitude after DAMGO-washout” value ([1]; MOR cKO slices, 9 out of 9 neurons, after washout of 500 nM) is reported as 96.2±11.9% and the “EPSC amplitude after washout (LTP)” value ([1]; control slices, 8 out of 15 neurons, thirty minutes after washout of 500 nM) is reported as 142.2±6.1 % of control. The “depression of light-evoked EPSCs” value ([1]; control slices, all 15 recorded neurons, 500 nM bath application, at 5 min of application) was 52±10.5 % inhibition.

With C[N@+]1(CC2CC2)CC[C@]23c4c5ccc(O)c4O[C@H]2C(=O)CC[C@@]3(O)[C@H]1C5 [MNB, methylnaltrexone bromide] the “dose-response of MNB effect on morphine tolerance, latency to nociceptive reflexes (paw flinch)” value (wild-type C57Bl/6J mice; 45 s 52.5° C. hot plate, morphine 10 mg/kg + MNB 0.1-10.0 mg/kg) was “bell-shaped dose-response curve”, the “effect of MNB on morphine antinociceptive effects” value (wild-type C57Bl/6J mice; MNB 0.1-10.0 mg/kg combined with morphine) was “did not alter morphine antinociceptive effects” and the “onset of morphine antinociceptive tolerance and OIH, 10-day treatment” value (wild-type C57Bl/6J mice; MNB 1 or 10 mg/kg + morphine for 10 days, von Frey and 52.5° C. hotplate) was “prevents the onset of morphine antinociceptive tolerance and OIH”. For the same compound, the “onset of tolerance and OIH” value (wild-type C57Bl/6J mice; morphine 10 mg/kg + MNB 0.1-10.0 mg/kg once daily for 7 days) was “dose-dependently prevents the onset of morphine antinociceptive tolerance and OIH” and the “laxation responses, percentage of responders” value (laxation responses) was “higher percentage of responders after 5 or 12.5 mg subcutaneous MNB compared to a 20 mg dose”.

In the case of CN1CC[C@]23c4c5ccc(O)c4O[C@H]2[C@@H](O)C=C[C@H]3[C@H]1C5.O=S(=O)(O)O [morphine, Morphine sulfate], the OIH ([2]; global MOR KO mice, twice daily escalating 10 to 40 mg/kg schedule) is reported as “no OIH”, the “analgesic tolerance and OIH” value ([2]; wild-type mice, chronic morphine, fixed once daily 10 mg/kg or twice daily escalating 10 to 40 mg/kg, subcutaneous) is reported as “significant tolerance and OIH” and the OIH [3] is reported as “No indications of OIH”. For the same compound, the “reduction of nociceptive or affective-motivational orthotrauma pain after chronic treatment” value ([4]; after 7 days of chronic treatment) was “no longer effective”, the “antinociception, acute” value ([4]; first administration) was “acutely produced antinociception” and the “OIH for thermal and mechanical stimuli” value ([5]; MOR cKO mice vs controls) was “significantly less OIH than controls”. For the same compound, the “morphine antinociception over chronic treatment (tolerance)” value ([5]; MOR cKO mice) was “retained near full antinociceptive efficacy”, the “morphine antinociception over chronic treatment (tolerance)” value ([5]; littermate controls) was “progressively diminished” and the “antinociceptive tolerance and OIH, reflexive and affective-motivational measures” value (wild-type C57Bl/6J mice; morphine alone 10 mg/kg once daily for 7 days, Day 7 compared to Day 1) was “robust antinociceptive tolerance and OIH”. The affective-motivational behaviors (wild-type C57Bl/6J mice; [7]) was “effective at alleviating affective-motivational behaviors”, the nociceptive reflexes (wild-type C57Bl/6J mice; [7]) was “significantly reduce nociceptive reflexes” and the “reflexive or affective-motivational antinociception” value ([6]; MOR cKO mice, acute intrathecal 1 μg) was “did not produce significant reflexive or affective-motivational antinociception”. For the same compound, the “reflexive and affective-motivational antinociception” value ([6]; MOR cKO mice, subcutaneous 10 mg/kg) was “maximal reflexive and affective-motivational antinociception” and the antinociception ([6]; control mice, acute intrathecal 1 μg) was “robust antinociception”.
